Assay results taken from patent US20070122501A1, “Formulations containing astragalus extracts and uses thereof” (Hong Kong University of Science and Technology, priority 2003, published 2007).

Columns and labels:
[1] = tested on: late passage (PD40) neonatal keratinocytes; assay: Scratch (wound healing) assay in late passage / aging neonatal keratinocytes (FIGS. 7, 10); format: cell-based, human; settings: FIG. 10
Description: (§1) Cell lines used in these experiments were obtained from Cascade Biologics, Inc. Neonatal keratinocytes (HEKneo-P) were obtained from a pool generated from three donors, designated HEKn(12), PD 8.46; HEKn(15), PD 9.3; and HEKn(16), PD 5.16. Adult keratinocytes were obtained from a single donor, designated HEKa(18). The terms “neonatal” and “adult” refer to the age of the donor, while the terms “young” and “aging” or “late passage” refer to the age of the cell culture, and correspond to the number of population doublings (indicated as PD no.).
(§2) Cells are plated in flasks (5×10^5 cells per flask) and cultured for two days in a humidified chamber at 5% CO2, 37° C. To create the “wound”, a 2 ml plastic pipette is gently dragged to “scratch” the cell surface. The ideal wound is approximately 2-3 mm wide and 50 mm long (along the long axis of the tissue culture flask). The cells are retreated with medium containing either vehicle (DMSO; control sample) or test compositions at multiple concentrations. […]
(§3) Amount of wound closure is determined by measuring the width of the wound over time for extract-treated samples relative to vehicle-treated or other control cells. […] Percentage of wound healing is calculated by the following formula: WH=100−[100×Wn/W0], where Wn is the width of the wound on day n and W0 is the width of the wound on day one (immediately after scratching).

[2] = tested on: aging (PD34) adult keratinocytes; assay: Scratch (wound healing) assay in aging adult keratinocytes (FIGS. 6, 8, 9); format: cell-based, human; settings: FIG. 8, comparison of extract and PDGF
Description: as §1, §2, §3

PDGF
wound closure after four days [1]: complete or near-complete wound closure | state of scratched cell layer by day 4 [2]: confluent or near-confluent
